Assay results taken from PubChem BioAssay AID248 (DTP/NCI, 2004).
Where “and” joins values, the source holds several entries; their conditions need not be identical. Identical values can stand only once. Toxic doses and inconclusive results are not listed. Cut-off read from the data, not from the text of the source: active = T/C of 150% or more; inactive = T/C below 125%.

System: L1210 leukemia ip in BDF1 mice, survival T/C
Experiment: NCI In Vivo Anticancer Drug Screen. Data for tumor model L1210 Leukemia (intraperitoneal) in B6D2F1 (BDF1) mice
Details: endpoint: mean survival time, higher = longer survival
How it was run: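 Mice bearing the transplanted tumor received compound or vehicle. Survival of the treated group was divided by that of the vehicle-treated control group to give the ratio.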

[1] = dose: 100.0 mg/kg/injection, schedule: Q04DX003 (ip), vehicle: saline with Tween-80
[2] = dose: 200.0 mg/kg/injection, schedule: Q04DX003 (ip), vehicle: saline with Tween-80
[3] = dose: 400.0 mg/kg/injection, schedule: Q04DX003 (ip), vehicle: saline with Tween-80
[4] = dose: 100.0 mg/kg/injection, schedule: Q04DX003 (ip), vehicle: Klucel (hydroxypropylcellulose) (HPC)
[5] = dose: 200.0 mg/kg/injection, schedule: Q04DX003 (ip), vehicle: Klucel (hydroxypropylcellulose) (HPC)
[6] = dose: 400.0 mg/kg/injection, schedule: Q04DX003 (ip), vehicle: Klucel (hydroxypropylcellulose) (HPC)
[7] = dose: 50.0 mg/kg/injection, schedule: Q01DX009 (ip), vehicle: Klucel (hydroxypropylcellulose) (HPC)
[8] = dose: 100.0 mg/kg/injection, schedule: Q01DX009 (ip), vehicle: Klucel (hydroxypropylcellulose) (HPC)
[9] = dose: 200.0 mg/kg/injection, schedule: Q01DX009 (ip), vehicle: Klucel (hydroxypropylcellulose) (HPC)
[10] = dose: 20.0 mg/kg/injection, schedule: Q04DX003 (ip), vehicle: saline
[11] = dose: 40.0 mg/kg/injection, schedule: Q04DX003 (ip), vehicle: saline

Measured: T/C

C[n+]1ccn(CCCl)c1
inactive: dose: 25.0 mg/kg/injection, schedule: Q01DX Z (ip), vehicle: saline 96 % of control | dose: 50.0 mg/kg/injection, schedule: Q01DX Z (ip), vehicle: saline 93 % of control | dose: 100.0 mg/kg/injection, schedule: Q01DX Z (ip), vehicle: saline 96 % of control

O=[N+]([O-])c1cccc2ncsc12
inactive: dose: 100.0 mg/kg/injection, schedule: Q01DX009 (ip), vehicle: other 104 % of control | dose: 200.0 mg/kg/injection, schedule: Q01DX009 (ip), vehicle: other 107 % of control | dose: 400.0 mg/kg/injection, schedule: Q01DX009 (ip), vehicle: other 104 % of control

O=c1c2ccccc2c2c3c1cccc3c1cccc3c(=O)c4ccccc4c2c31
inactive: [1] 98 % of control | [2] 101 % of control | [3] 104 % of control

Cc1cccc(OCCOC(=O)Nc2ccccc2C(F)(F)F)c1
inactive: [4] 87 % of control | [5] 88 % of control | [6] 90 % of control

O=C(/C=C(\Br)c1ccccc1)c1ccccc1
inactive: dose: 25.0 mg/kg/injection, schedule: Q01DX005 (ip), vehicle: saline with Tween-80 93 % of control | dose: 25.0 mg/kg/injection, schedule: Q01DX009 (ip), vehicle: saline with Tween-80 88 % of control | dose: 25.0 mg/kg/injection, schedule: Q04DX002 (ip), vehicle: saline with Tween-80 102 % of control | dose: 50.0 mg/kg/injection, schedule: Q01DX005 (ip), vehicle: saline with Tween-80 97 % of control | dose: 50.0 mg/kg/injection, schedule: Q01DX009 (ip), vehicle: saline with Tween-80 98 % of control | dose: 50.0 mg/kg/injection, schedule: Q04DX002 (ip), vehicle: saline with Tween-80 109 % of control | dose: 100.0 mg/kg/injection, schedule: Q01DX005 (ip), vehicle: saline with Tween-80 108 % of control | dose: 100.0 mg/kg/injection, schedule: Q04DX002 (ip), vehicle: saline with Tween-80 91 % of control

O=C(/C=C/c1ccc2c(c1)OCO2)c1ccccc1
inactive: [7] 97 % of control | [8] 103 % of control | [4] 102 % of control | [9] 106 % of control | [5] 93 % of control | dose: 400.0 mg/kg/injection, schedule: Q01DX009 (ip), vehicle: Klucel (hydroxypropylcellulose) (HPC) 103 % of control | [6] 98 % of control

CC(=O)Nc1ccc(I)cc1C(=O)O
inactive: dose: 50.0 mg/kg/injection, schedule: Q01DX001 (ip), vehicle: carboxymethylcellulose (CMC) 96 % of control | dose: 100.0 mg/kg/injection, schedule: Q01DX001 (ip), vehicle: carboxymethylcellulose (CMC) 91 % of control | dose: 200.0 mg/kg/injection, schedule: Q01DX001 (ip), vehicle: carboxymethylcellulose (CMC) 91 % of control

CC(C)C1=CC23CCC4C(C)(C(=O)O)CCCC4(C)C2CC1C1C(=O)OC(=O)C13 (stereo not drawn)
inactive: dose: 25.0 mg/kg/injection, schedule: Q01DX009 (ip), vehicle: Klucel (hydroxypropylcellulose) (HPC) 106 % of control | dose: 25.0 mg/kg/injection, schedule: Q04DX003 (ip), vehicle: Klucel (hydroxypropylcellulose) (HPC) 103 % of control | [7] 102 % of control | dose: 50.0 mg/kg/injection, schedule: Q04DX003 (ip), vehicle: Klucel (hydroxypropylcellulose) (HPC) 101 % of control | [8] 102 % of control | [4] 95 % of control | [9] 91 % of control

CC(O)c1cccnc1 (stereo not drawn)
inactive: dose: 10.0 mg/kg/injection, schedule: Q01DX009 (ip), vehicle: saline 99 % of control | dose: 10.0 mg/kg/injection, schedule: Q04DX003 (ip), vehicle: saline 97 % of control | dose: 20.0 mg/kg/injection, schedule: Q01DX009 (ip), vehicle: saline 99 % of control | [10] 105 % of control | dose: 40.0 mg/kg/injection, schedule: Q01DX009 (ip), vehicle: saline 97 % of control | [11] 100 % of control

O=S(=O)(O)/[N+]([O-])=N/O
inactive: dose: 100.0 mg/kg/injection, schedule: Q04DX003 (ip), vehicle: saline sonified 94 % of control | dose: 200.0 mg/kg/injection, schedule: Q04DX003 (ip), vehicle: saline sonified 100 % of control | dose: 400.0 mg/kg/injection, schedule: Q04DX003 (ip), vehicle: saline sonified 95 % of control

O=S(=O)(Nc1ccc(N(c2c(Cl)c(Cl)c(NS(=O)(=O)c3ccccc3)c(Cl)c2Cl)S(=O)(=O)c2ccccc2)cc1)c1ccccc1
inactive: dose: 100.0 mg/kg/injection, schedule: Q01DX001 (ip), vehicle: Klucel (hydroxypropylcellulose) (HPC) 93 % of control | dose: 200.0 mg/kg/injection, schedule: Q01DX001 (ip), vehicle: Klucel (hydroxypropylcellulose) (HPC) 96 % of control | dose: 400.0 mg/kg/injection, schedule: Q01DX001 (ip), vehicle: Klucel (hydroxypropylcellulose) (HPC) 95 % of control

C(CCCCCC1CCC2CCCC2C1)CCCCC1CCC2CCCC2C1 (stereo not drawn)
inactive: dose: 100.0 mg/kg/injection, schedule: Q01DX001 (ip), vehicle: saline with Tween-80 87 % of control | dose: 200.0 mg/kg/injection, schedule: Q01DX001 (ip), vehicle: saline with Tween-80 101 % of control | dose: 400.0 mg/kg/injection, schedule: Q01DX001 (ip), vehicle: saline with Tween-80 87 % of control

CC(=O)Oc1cc2c(cc1N=NN(C)C)[C@H]1CC[C@]3(C)[C@@H](O)CC[C@H]3[C@@H]1CC2
inactive: [7] 95 % of control

CCOC(=O)Cc1cc(=O)c2cc(OC)ccc2[nH]1
inactive: dose: 75.0 mg/kg/injection, schedule: Q01DX001 (ip), vehicle: saline 107 % of control | dose: 75.0 mg/kg/injection, schedule: Q04DX003 (ip), vehicle: saline 105 % of control | dose: 150.0 mg/kg/injection, schedule: Q01DX001 (ip), vehicle: saline 91 % of control | dose: 150.0 mg/kg/injection, schedule: Q04DX003 (ip), vehicle: saline 100 % of control | dose: 300.0 mg/kg/injection, schedule: Q01DX001 (ip), vehicle: saline 94 % of control | dose: 300.0 mg/kg/injection, schedule: Q04DX003 (ip), vehicle: saline 103 % of control

CCSc1ncc(C)c(Cl)n1
inactive: dose: 100.0 mg/kg/injection, schedule: Q01DX009 (ip), vehicle: water 103 % of control | dose: 100.0 mg/kg/injection, schedule: Q04DX003 (ip), vehicle: water 100 % of control | dose: 200.0 mg/kg/injection, schedule: Q01DX009 (ip), vehicle: water 94 % of control | dose: 200.0 mg/kg/injection, schedule: Q04DX003 (ip), vehicle: water 108 % of control | dose: 400.0 mg/kg/injection, schedule: Q01DX009 (ip), vehicle: water 100 % of control | dose: 400.0 mg/kg/injection, schedule: Q04DX003 (ip), vehicle: water 100 % of control

CC1SCSCS1
inactive: [4] 111 % of control | [5] 88 % of control | [6] 98 % of control

N#Cc1cc2ccncc2c2ccccc12
inactive: [1] 100 % of control | [2] 96 % of control | [3] 97 % of control

Cc1c2ccccc2cc2cccc[n+]12
inactive: dose: 4.0 mg/kg/injection, schedule: Q01DX015 (ip), vehicle: saline 97 % of control | dose: 5.0 mg/kg/injection, schedule: Q01DX001 (ip), vehicle: saline 98 % of control | dose: 8.0 mg/kg/injection, schedule: Q01DX015 (ip), vehicle: saline 97 % of control | dose: 10.0 mg/kg/injection, schedule: Q01DX001 (ip), vehicle: saline 92 % of control | dose: 16.0 mg/kg/injection, schedule: Q01DX015 (ip), vehicle: saline 110 % of control | dose: 20.0 mg/kg/injection, schedule: Q01DX001 (ip), vehicle: saline 107 % of control | [10] 111 % of control | dose: 26.0 mg/kg/injection, schedule: Q04DX003 (ip), vehicle: saline 111 % of control and 118 % of control | dose: 32.0 mg/kg/injection, schedule: Q01DX015 (ip), vehicle: saline 95 % of control | dose: 40.0 mg/kg/injection, schedule: Q01DX001 (ip), vehicle: saline 112 % of control | [11] 116 % of control and 117 % of control | dose: 60.0 mg/kg/injection, schedule: Q04DX003 (ip), vehicle: saline 122 % of control
